Assay results reported in patent US9676757B2, “Heterocyclic compounds as NaV channel inhibitors and uses thereof” (Merck Patent GmbH, priority 2014, dated 2017).
Like-named read-outs stand apart in the source and are kept apart here.

Molecular target: Nav1.6 (Homo sapiens, UniProt Q9UQD0)
Assay: Nav two-pulse protocol, IonWorks Quattro electrophysiology
Format: cell-based
Details: -120 mV to 0 mV, compound incubated 300 s
Description: Compound Plate Preparation
Supplied compounds were sent as Assay Ready Plates, with 2 μL per well of compound in DMSO at 300× the final assay concentrations as described above and in the project proposal. All assay plates are stored at in a −80° C. freezer.
On the day of the assay, 198 μL of external solution was added to the appropriate assay plate and mixed thoroughly. This provided a 1:100 dilution. A further 1:3 dilution occurred upon addition to the cells in the IonWorks, giving a 1:300 dilution in total.
On each assay plate, at least 8 wells were reserved for vehicle control (0.3% DMSO) and at least 8 wells for each positive control specific to the cell line tested. The positive controls were tested in an 8-point dose response with 3-fold dilutions to determine an IC50 value for each run. The positive control compounds are outlined below.
Ion Channel Positive Control & Concentrations
Nav1.6/1.2 Lidocaine: 8, 3-fold dilutions starting at 100 μM
Electrophysiological Recording Solutions
The solutions for recording currents were are follows:
Amphotericin B was used to obtain electrical access to the cell interior at a final concentration of 200 μg/ml in internal recording solution.
Experimental Protocols & Data Analysis
Nav currents were evoked by stepping from a holding potential of −120 mV to 0 mV for 2.5 s (pulse 1), followed by a 5 ms inter-pulse interval, and stepping from a holding potential of −120 mV to 0 mV for 20 ms (pulse 2). The voltage protocol was applied (Pre), compounds added, incubated for 300 seconds, and the voltage protocol was applied a final time (Post) on the IonWorks Quattro.
The parameters measured were the maximum inward current evoked on stepping to 0 mV from the 1st and 2nd pulse. All data were filtered for seal quality, seal drop, and current amplitude. The peak current amplitude (Peak) was calculated before (Pre) and after (Post) compound addition to the amount of block was assessed by dividing the Post-compound current amplitude by the Pre-compound current amplitude. These procedures were implemented for the 1st and 2nd pulse.

Chain of Nav1.6 (Q9UQD0 whole entry): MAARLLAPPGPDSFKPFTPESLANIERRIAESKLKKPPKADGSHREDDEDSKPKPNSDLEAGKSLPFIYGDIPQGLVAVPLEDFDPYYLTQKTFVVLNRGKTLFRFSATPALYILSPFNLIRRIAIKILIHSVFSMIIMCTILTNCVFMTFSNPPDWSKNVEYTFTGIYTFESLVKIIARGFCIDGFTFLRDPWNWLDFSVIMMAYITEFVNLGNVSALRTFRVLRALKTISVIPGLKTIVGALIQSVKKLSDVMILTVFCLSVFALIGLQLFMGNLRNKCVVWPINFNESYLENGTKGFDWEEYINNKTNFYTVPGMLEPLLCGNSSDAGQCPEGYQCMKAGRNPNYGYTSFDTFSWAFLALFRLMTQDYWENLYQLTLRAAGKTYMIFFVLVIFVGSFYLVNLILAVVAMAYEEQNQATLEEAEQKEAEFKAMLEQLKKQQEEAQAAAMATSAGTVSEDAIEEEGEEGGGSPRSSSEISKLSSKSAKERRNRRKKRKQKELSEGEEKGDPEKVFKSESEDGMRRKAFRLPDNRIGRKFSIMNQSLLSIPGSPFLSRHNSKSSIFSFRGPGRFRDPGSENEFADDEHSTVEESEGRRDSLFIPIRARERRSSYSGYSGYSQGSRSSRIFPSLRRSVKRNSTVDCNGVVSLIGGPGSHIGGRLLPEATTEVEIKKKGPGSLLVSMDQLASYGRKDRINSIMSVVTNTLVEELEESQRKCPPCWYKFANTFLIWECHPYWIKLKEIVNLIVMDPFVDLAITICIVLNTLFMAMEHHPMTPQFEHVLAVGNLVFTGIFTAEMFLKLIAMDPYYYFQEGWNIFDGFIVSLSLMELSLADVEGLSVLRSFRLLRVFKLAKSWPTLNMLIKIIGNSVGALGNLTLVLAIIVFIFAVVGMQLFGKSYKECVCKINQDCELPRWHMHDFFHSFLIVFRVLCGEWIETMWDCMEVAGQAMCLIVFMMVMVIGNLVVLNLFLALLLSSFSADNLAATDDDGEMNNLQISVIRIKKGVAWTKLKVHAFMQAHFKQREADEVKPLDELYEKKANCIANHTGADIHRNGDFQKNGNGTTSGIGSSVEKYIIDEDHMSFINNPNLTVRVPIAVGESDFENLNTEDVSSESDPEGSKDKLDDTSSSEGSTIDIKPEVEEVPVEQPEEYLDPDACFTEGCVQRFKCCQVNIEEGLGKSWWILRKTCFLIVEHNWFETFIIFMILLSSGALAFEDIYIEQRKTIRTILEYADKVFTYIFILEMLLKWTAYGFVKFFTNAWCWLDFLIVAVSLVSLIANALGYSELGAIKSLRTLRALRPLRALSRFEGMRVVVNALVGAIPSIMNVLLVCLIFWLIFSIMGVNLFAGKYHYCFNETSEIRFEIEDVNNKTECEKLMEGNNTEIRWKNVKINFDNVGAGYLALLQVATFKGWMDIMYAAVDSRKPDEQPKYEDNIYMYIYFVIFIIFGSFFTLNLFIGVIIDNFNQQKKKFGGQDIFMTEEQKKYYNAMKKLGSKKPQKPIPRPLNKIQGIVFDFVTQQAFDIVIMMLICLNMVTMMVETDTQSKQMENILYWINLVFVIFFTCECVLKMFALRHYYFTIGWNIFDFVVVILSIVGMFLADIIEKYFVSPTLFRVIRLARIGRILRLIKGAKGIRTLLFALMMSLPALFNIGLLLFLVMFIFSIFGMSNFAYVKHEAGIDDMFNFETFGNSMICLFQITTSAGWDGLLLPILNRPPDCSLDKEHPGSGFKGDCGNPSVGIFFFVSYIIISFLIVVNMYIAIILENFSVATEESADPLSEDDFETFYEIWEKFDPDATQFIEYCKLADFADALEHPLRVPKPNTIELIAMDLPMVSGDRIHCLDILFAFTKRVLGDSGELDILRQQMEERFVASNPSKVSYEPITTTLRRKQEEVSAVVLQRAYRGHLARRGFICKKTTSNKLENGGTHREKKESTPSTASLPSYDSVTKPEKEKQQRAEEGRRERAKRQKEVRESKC

Row | Structure (SMILES) | IC50 (read-out: Nav1.6 Tonic) [µM] | IC50 (read-out: Nav1.6 inac) [µM]
1 | CC(C)COc1cccc(CN2CCC(COCc3ccccn3)C2)c1 (stereo not drawn) [Compound 35, 2-[1-(3-Isobutoxy-benzyl)-pyrrolidin-3-ylmethoxymethyl]-pyridine] | > 20 | 1 to 5
2 | CC(C)OCc1cccc(CN2CCC(CNC(=O)c3ccccn3)C2)c1 (stereo not drawn) [Compound 36, Pyridine-2-carboxylic acid [1-(3-isopropoxymethyl-benzyl)-pyrrolidin-3-ylmethyl]-amide] | > 20 | < 1
3 | C[C@@]1(C(=O)NCc2ccccn2)CCN(Cc2cccc(Oc3ccccc3)c2)C1 [Compound 37, (R)-3-methyl-1-(3-phenoxybenzyl)-N-(pyridin-2-ylmethyl)pyrrolidine-3-carboxamide] | > 20 | 1 to 5
4 | C[C@]1(C(=O)NCc2ccccn2)CCN(Cc2cccc(Oc3ccccc3)c2)C1 [Compound 38, (S)-3-methyl-1-(3-phenoxybenzyl)-N-(pyridin-2-ylmethyl)pyrrolidine-3-carboxamide] | > 20 | > 5
5 | CC1(C(=O)N2CCNCC2)CCN(Cc2cccc(Oc3ccccc3)c2)C1 (stereo not drawn) [Compound 39, [3-Methyl-1-(3-phenoxy-benzyl)-pyrrolidin-3-yl]-piperazin-1-yl-methanone] | > 20 | 1 to 5
6 | CCNC(=O)C1(C)CCN(C(=O)c2cccc(Oc3ccccc3)c2)C1 (stereo not drawn) [Compound 40, 3-Methyl-1-(3-phenoxy-benzoyl)-pyrrolidine-3-carboxylic acid ethylamide] | 10 to 20 | < 1
7 | CCNC(=O)C1(C)CCN(Cc2cccc(OC(F)(F)F)c2)C1 (stereo not drawn) [Compound 41, 3-Methyl-1-(3-trifluoromethoxy-benzyl)-pyrrolidine-3-carboxylic acid ethylamide] | 10 to 20 | < 1
8 | CC(C)C[S+]([O-])c1cccc(CN2CCC(C(=O)NCc3ccccn3)C2)c1 (stereo not drawn) [Compound 42, 1-[3-(2-Methyl-propane-1-sulfinyl)-benzyl]-pyrrolidine-3-carboxylic acid (pyridin-2-ylmethyl)-amide] | > 20 | > 5
9 | Cc1cccc(Oc2cccc(CN3CCC(C(=O)NCc4ccccn4)C3)c2)c1 (stereo not drawn) [Compound 43, 1-(3-m-Tolyloxy-benzyl)-pyrrolidine-3-carboxylic acid (pyridin-2-ylmethyl)-amide] | > 20 | > 5
10 | O=C(NCc1ccccn1)C1CCN(Cc2cccc(Oc3ncccn3)c2)C1 (stereo not drawn) [Compound 44, 1-[3-(Pyrimidin-2-yloxy)-benzyl]-pyrrolidine-3-carboxylic acid (pyridin-2-ylmethyl)-amide] | > 20 | > 5
11 | Cc1cccc(Oc2cccc(CN3CCC(C)(C(=O)NCc4ccccn4)C3)c2)c1 (stereo not drawn) [Compound 45, 3-Methyl-1-(3-m-tolyloxy-benzyl)-pyrrolidine-3-carboxylic acid (pyridin-2-ylmethyl)-amide] | > 20 | > 5
12 | CC(C)CSc1cccc(CN2CCC(C(=O)OCc3ccccn3)C2)c1 (stereo not drawn) [Compound 46, 1-(3-Isobutylsulfanyl-benzyl)-pyrrolidine-3-carboxylic acid pyridin-2-ylmethyl ester] | > 20 | 1 to 5
13 | CC(C)CS(=O)(=O)c1cccc(CN2CCC(C(=O)OCc3ccccn3)C2)c1 (stereo not drawn) [Compound 47, 1-[3-(2-Methyl-propane-1-sulfonyl)-benzyl]-pyrrolidine-3-carboxylic acid pyridin-2-ylmethyl ester] | > 20 | 1 to 5
14 | CC(C)COc1cccc(CN2CCC(c3noc(-c4ccccn4)n3)C2)c1 (stereo not drawn) [Compound 48, 2-{3-[1-(3-Isobutoxy-benzyl)-pyrrolidin-3-yl]-[1,2,4]oxadiazol-5-yl}-pyridine] | > 20 | 1 to 5
15 | COc1cccnc1-c1nc(C2CCN(Cc3cccc(OCC(C)C)c3)C2)no1 (stereo not drawn) [Compound 49, 2-{3-[1-(3-Isobutoxy-benzyl)-pyrrolidin-3-yl]-[1,2,4]oxadiazol-5-yl}-3-methoxy-pyridine] | > 20 | 1 to 5
16 | CC(C)COc1cccc(CN2CCC(c3noc(-c4ncccc4F)n3)C2)c1 (stereo not drawn) [Compound 50, 3-Fluoro-2-{3-[1-(3-isobutoxy-benzyl)-pyrrolidin-3-yl]-[1,2,4]oxadiazol-5-yl}-pyridine] | > 20 | > 5
17 | Cc1cccnc1-c1nc(C2CCN(Cc3cccc(OCC(C)C)c3)C2)no1 (stereo not drawn) [Compound 51, 2-{3-[1-(3-Isobutoxy-benzyl)-pyrrolidin-3-yl]-[1,2,4]oxadiazol-5-yl}-3-methyl-pyridine] | > 20 | 1 to 5
18 | COc1ccnc(-c2nc(C3CCN(Cc4cccc(OCC(C)C)c4)C3)no2)c1 (stereo not drawn) [Compound 52, 2-{3-[1-(3-Isobutoxy-benzyl)-pyrrolidin-3-yl]-[1,2,4]oxadiazol-5-yl}-4-methoxy-pyridine] | > 20 | 1 to 5
19 | CC(C)COc1cccc(CN2CCC(c3noc(-c4cc(Cl)ccn4)n3)C2)c1 (stereo not drawn) [Compound 53, 4-Chloro-2-{3-[1-(3-isobutoxy-benzyl)-pyrrolidin-3-yl]-[1,2,4]oxadiazol-5-yl}-pyridine] | > 20 | 1 to 5
20 | COc1ccc(-c2nc(C3CCN(Cc4cccc(OCC(C)C)c4)C3)no2)nc1 (stereo not drawn) [Compound 54, 2-{3-[1-(3-Isobutoxy-benzyl)-pyrrolidin-3-yl]-[1,2,4]oxadiazol-5-yl}-5-methoxy-pyridine] | > 20 | 1 to 5
21 | Cc1ccc(-c2nc(C3CCN(Cc4cccc(OCC(C)C)c4)C3)no2)nc1 (stereo not drawn) [Compound 55, 2-{3-[1-(3-Isobutoxy-benzyl)-pyrrolidin-3-yl]-[1,2,4]oxadiazol-5-yl}-5-methyl-pyridine] | > 20 | 1 to 5
22 | COc1cccc(-c2nc(C3CCN(Cc4cccc(OCC(C)C)c4)C3)no2)n1 (stereo not drawn) [Compound 56, 2-{3-[1-(3-Isobutoxy-benzyl)-pyrrolidin-3-yl]-[1,2,4]oxadiazol-5-yl}-6-methoxy-pyridine] | > 20 | 1 to 5
23 | CC(C)COc1cccc(CN2CCC(c3noc(Cc4ccccn4)n3)C2)c1 (stereo not drawn) [Compound 57, 2-{3-[1-(3-Isobutoxy-benzyl)-pyrrolidin-3-yl]-[1,2,4]oxadiazol-5-ylmethyl}-pyridine] | > 20 | 1 to 5
24 | CC(C)COc1cccc(CN2CCC(c3noc(-c4cc(Br)ccn4)n3)C2)c1 (stereo not drawn) [Compound 58, 4-Bromo-2-{3-[1-(3-isobutoxy-benzyl)-pyrrolidin-3-yl]-[1,2,4]oxadiazol-5-yl}-pyridine] | > 20 | > 5
25 | CC(C)COc1cccc(CN2CCC(c3noc(-c4ccc(F)cn4)n3)C2)c1 (stereo not drawn) [Compound 59, 5-Fluoro-2-{3-[1-(3-isobutoxy-benzyl)-pyrrolidin-3-yl]-[1,2,4]oxadiazol-5-yl}-pyridine] | > 20 | > 5
26 | CC(C)COc1cccc(CN2CCC(n3cc(-c4ccccn4)nn3)C2)c1 (stereo not drawn) [Compound 60, 2-{1-[1-(3-Isobutoxy-benzyl)-pyrrolidin-3-yl]-1H-[1,2,3]triazol-4-yl}-pyridine] | > 20 | 1 to 5
27 | Cc1cccc(-c2cn(C3CCN(Cc4cccc(OCC(C)C)c4)C3)nn2)n1 (stereo not drawn) [Compound 61, 2-{1-[1-(3-Isobutoxy-benzyl)-pyrrolidin-3-yl]-1H-[1,2,3]triazol-4-yl}-6-methyl-pyridine] | > 20 | > 5
